Test results published in patent US20080287491A1, “Tetrahydroquinoline Derivative for Treating Nicotine Craving” (priority 2003, published 2008).
Entries after “also recorded” stand apart in the source; their conditions may differ. Counter-ions that a name gives are not always drawn.

Columns and labels:
[1] = test system: nicotine craving in smokers abstinent for 72 hours from cigarettes; assay: QSU-Brief nicotine craving questionnaire, repeated-dose three-period crossover enforced abstinence study; assay type: in vivo, human; settings: 31 smoker volunteers; 120 mg/day intravenously for 7 days; 72 hours of abstinence from Day 5; FIG. 1
Experimental: The ability of the compound of formula (I) or pharmaceutically acceptable salts thereof to reduce nicotine craving in smokers was measured by means of self-administered questionnaires on Smoking Craving/Urge-Brief (QSU-Brief), as described by Tiffany S T, & Christen A G Cox L S, Nicotine and Tobacco Research, 3: 7-16, 2001. The QSU-Brief is a specific craving scale that consists of 10 items scored on a scale from 1 to 7. The higher average score corresponds to the higher intensity of nicotine craving. The QSU-Brief has 2 factors: factor 1 refers to the anticipation of pleasure from smoke and factor 2 refers to anticipation of relief from negative affects of abstinence. A further study investigated nicotine craving in smokers abstinent for 72 hours from cigarettes (enforced abstinence model) receiving either repeated administrations of the compound of formula (I) as meglumine salt (Compound) or placebo. […] Each subject was exposed to 3 different experimental conditions: 1) Compound (120 mg/day) was administered intravenously for 7 days starting on Day 1 and quitted smoking abruptly on Day 5 for 72 hours (i.e. non-smoking period;) 2) Placebo was administered intravenously for 7 days starting on Day 1 and quitted smoking abruptly on Day 5 for 72 hours (i.e. non-smoking period;) 3) allowed to smoke for 7 consecutive days (i.e. free smoking period). […]

[2] = test system: nicotine craving in smokers abstinent for 3 days from cigarettes; assay: QSU-Brief nicotine craving questionnaire, single-dose enforced abstinence study; assay type: in vivo, human; settings: single dose 120 mg iv
Experimental: The ability of the compound of formula (I) or pharmaceutically acceptable salts thereof to reduce nicotine craving in smokers was measured by means of self-administered questionnaires on Smoking Craving/Urge-Brief (QSU-Brief), as described by Tiffany S T, & Christen A G Cox L S, Nicotine and Tobacco Research, 3: 7-16, 2001. The QSU-Brief is a specific craving scale that consists of 10 items scored on a scale from 1 to 7. The higher average score corresponds to the higher intensity of nicotine craving. The QSU-Brief has 2 factors: factor 1 refers to the anticipation of pleasure from smoke and factor 2 refers to anticipation of relief from negative affects of abstinence. The study investigated nicotine craving in smokers abstinent for 3 days from cigarettes (enforced abstinence model) receiving either a single dose 120 mg iv of the compound of formula (I) as meglumine salt (Compound) or a single dose of placebo. Self-administered questionnaires (QSU-Brief), were administered at pre-dose and 3, 6 and 12 hours post dose to evaluate craving.

## O=C(O)[C@H]1C/C(=C2/CCN(c3ccccc3)C2=O)c2ccc(Cl)cc2N1 [Compound, (2R,4E)-7-chloro-4-(2-oxo-1-phenyl-3-pyrrolidinylidene)-1,2,3,4-tetrahydro-2-quinolinecarboxylic acid, (2R,3R,4R,5S)-6-methylamino-hexane-1,2,3,4,5-pentanol (meglumine) salt (form 2)]
[1]
  Nicotine craving level (QSU-Brief) compared with placebo: showed reduction in nicotine craving; also recorded: reduced the nicotine craving level
[2]; QSU-Brief items scored 1 to 7, pre-dose and 3, 6 and 12 hours post dose, placebo 4.0
  QSU-Brief: Craving Factor 2 (average during abstinence): 3.6
[2]; versus abstinent smokers receiving placebo
  Average craving factor 2 compared with placebo: significant average lower craving factor 2
